Results: publication PMC9516332 (Frontiers in Oncology, 2022)
Like-named read-outs stand apart in the source and are kept apart here.

Assays:
[1] = test system: AP-1060 (ETV6-NTRK3); experiment: Cell viability assay; conditions: read-out: IC50 in cell proliferation assay
[2] = test system: 134 cancer cell lines; experiment: Cell viability assay (ATPlite, 72 hours), IC50 on cancer cell line panel

Work on `CCN1C(=O)N(c2c(F)c(OC)cc(OC)c2F)Cc2cnc3[nH]c(CN4CCOCC4)cc3c21` [pemigatinib] yielded an IC50 [1] of 3.42 µM, an IC50 ([2]; HEC-6, read-out: IC50 in cell proliferation assay) of 2.49 µM and an IC50 ([2]; Homo sapiens, 769-P, read-out: IC50 in cell proliferation assay) of 2.53 µM. For the same compound, the IC50 ([2]; Homo sapiens, 786-0, read-out: IC50 in cell proliferation assay) was 2.71 µM, the IC50 ([2]; Homo sapiens, A 172, read-out: IC50 in cell proliferation assay) was 0.029 µM and the IC50 ([2]; Homo sapiens, A204, read-out: IC50 in cell proliferation assay) was 0.029 µM. It also gave an IC50 ([2]; Homo sapiens, A498, read-out: IC50 in cell proliferation assay) of 1.13 µM, an IC50 ([2]; Homo sapiens, A549, read-out: IC50 in cell proliferation assay) of 4.02 µM and an IC50 ([2]; Homo sapiens, A704, read-out: IC50 in cell proliferation assay) of 1.28 µM. The IC50 ([2]; Homo sapiens, A-375, read-out: IC50 in cell proliferation assay) was 3.03 µM, the IC50 ([2]; Homo sapiens, A-427, read-out: IC50 in cell proliferation assay) was 0.00143 µM and the IC50 ([2]; Homo sapiens, ACHN, read-out: IC50 in cell proliferation assay) was 0.989 µM. It also gave an IC50 ([2]; Homo sapiens, AN3-CA, read-out: IC50 in cell proliferation assay) of 0.022 µM, an IC50 ([2]; Homo sapiens, ASPC1, read-out: IC50 in cell proliferation assay) of 3.17 µM and an IC50 ([2]; Homo sapiens, AU565, read-out: IC50 in cell proliferation assay) of 3.26 µM. For the same compound, the IC50 ([2]; Homo sapiens, BT-20, read-out: IC50 in cell proliferation assay) was 2.84 µM, the IC50 ([2]; Homo sapiens, BT-474, read-out: IC50 in cell proliferation assay) was over 31.6 µM and the IC50 ([2]; Homo sapiens, BT-549, read-out: IC50 in cell proliferation assay) was 0.017 µM. For the same compound, the IC50 ([2]; Homo sapiens, BXPC-3, read-out: IC50 in cell proliferation assay) was 1.2 µM, the IC50 ([2]; Homo sapiens, C-33-A, read-out: IC50 in cell proliferation assay) was 2.71 µM and the IC50 ([2]; Homo sapiens, CAL-27, read-out: IC50 in cell proliferation assay) was 2.65 µM. For the same compound, the IC50 ([2]; Homo sapiens, CCF-STTG1, read-out: IC50 in cell proliferation assay) was over 31.6 µM, the IC50 ([2]; Homo sapiens, CCRF-CEM, read-out: IC50 in cell proliferation assay) was 3.6 µM and the IC50 ([2]; Homo sapiens, COLO 205, read-out: IC50 in cell proliferation assay) was 2.98 µM. For the same compound, the IC50 ([2]; Homo sapiens, COLO-829, read-out: IC50 in cell proliferation assay) was 3.23 µM, the IC50 ([2]; Homo sapiens, DLD-1, read-out: IC50 in cell proliferation assay) was 2.27 µM and the IC50 ([2]; Homo sapiens, DU-145, read-out: IC50 in cell proliferation assay) was 1.6 µM. It also gave an IC50 ([2]; Homo sapiens, DU-4475, read-out: IC50 in cell proliferation assay) of 5.83 µM, an IC50 ([2]; Homo sapiens, Daoy, read-out: IC50 in cell proliferation assay) of 1.41 µM and an IC50 ([2]; Homo sapiens, DoTc2-4510, read-out: IC50 in cell proliferation assay) of 3.19 µM. It also gave an IC50 ([2]; Homo sapiens, EOL1, read-out: IC50 in cell proliferation assay) of 1.11 µM, an IC50 ([2]; Homo sapiens, FaDu, read-out: IC50 in cell proliferation assay) of 2.6 µM and an IC50 ([2]; Homo sapiens, G-361, read-out: IC50 in cell proliferation assay) of 2.57 µM. The IC50 ([2]; Homo sapiens, HCC827, read-out: IC50 in cell proliferation assay) was 3.2 µM, the IC50 ([2]; Homo sapiens, HCC4006, read-out: IC50 in cell proliferation assay) was 2.62 µM and the IC50 ([2]; Homo sapiens, HCT-15, read-out: IC50 in cell proliferation assay) was 2.82 µM. For the same compound, the IC50 ([2]; Homo sapiens, HCT-116, read-out: IC50 in cell proliferation assay) was 2.4 µM, the IC50 ([2]; Homo sapiens, HEC-1, read-out: IC50 in cell proliferation assay) was 2.37 µM and the IC50 ([2]; Homo sapiens, HEC-1B, read-out: IC50 in cell proliferation assay) was 2.74 µM. For the same compound, the IC50 ([2]; Homo sapiens, HL-60, read-out: IC50 in cell proliferation assay) was 2.45 µM, the IC50 ([2]; Homo sapiens, HT, read-out: IC50 in cell proliferation assay) was over 31.6 µM and the IC50 ([2]; Homo sapiens, HT-1080, read-out: IC50 in cell proliferation assay) was 1.06 µM. The IC50 ([2]; Homo sapiens, Hs746T, read-out: IC50 in cell proliferation assay) was 1.84 µM, the IC50 ([2]; Homo sapiens, Hs-578T, read-out: IC50 in cell proliferation assay) was 3.78 µM and the IC50 ([2]; Homo sapiens, HuTu80, read-out: IC50 in cell proliferation assay) was 0.00358 µM. It also gave an IC50 ([2]; Homo sapiens, J82, read-out: IC50 in cell proliferation assay) of 1.13 µM, an IC50 ([2]; Homo sapiens, Jurkat E6.1, read-out: IC50 in cell proliferation assay) of 2.89 µM and an IC50 ([2]; Homo sapiens, K562, read-out: IC50 in cell proliferation assay) of 3.77 µM. The IC50 ([2]; Homo sapiens, KATO III, read-out: IC50 in cell proliferation assay) was 0.00177 µM, the IC50 ([2]; Homo sapiens, KG-1, read-out: IC50 in cell proliferation assay) was 0.00108 µM and the IC50 ([2]; Homo sapiens, KLE, read-out: IC50 in cell proliferation assay) was 1.82 µM. For the same compound, the IC50 ([2]; Homo sapiens, KMS-11, read-out: IC50 in cell proliferation assay) was 0.016 µM, the IC50 ([2]; Homo sapiens, KU812, read-out: IC50 in cell proliferation assay) was 4.66 µM and the IC50 ([2]; Homo sapiens, Kasumi 1, read-out: IC50 in cell proliferation assay) was 1.29 µM. It also gave an IC50 ([2]; Homo sapiens, LC-2-ad, read-out: IC50 in cell proliferation assay) of 3.28 µM, an IC50 ([2]; Homo sapiens, LNCaP-Clone-FGC, read-out: IC50 in cell proliferation assay) of 3.09 µM and an IC50 ([2]; Homo sapiens, LS174T, read-out: IC50 in cell proliferation assay) of 3.69 µM. It also gave an IC50 ([2]; Homo sapiens, LS-411N, read-out: IC50 in cell proliferation assay) of 5.91 µM, an IC50 ([2]; Homo sapiens, LoVo, read-out: IC50 in cell proliferation assay) of 2.7 µM and an IC50 ([2]; Homo sapiens, MCF7, read-out: IC50 in cell proliferation assay) of over 31.6 µM. It also gave an IC50 ([2]; Homo sapiens, MDA-MB-231, read-out: IC50 in cell proliferation assay) of 4.51 µM, an IC50 ([2]; Homo sapiens, MDA-MB-453, read-out: IC50 in cell proliferation assay) of over 31.6 µM and an IC50 ([2]; Homo sapiens, MDA-MB-468, read-out: IC50 in cell proliferation assay) of 0.729 µM. For the same compound, the IC50 ([2]; Homo sapiens, MG-63, read-out: IC50 in cell proliferation assay) was 0.011 µM, the IC50 ([2]; Homo sapiens, MIA PaCa-2, read-out: IC50 in cell proliferation assay) was 5.73 µM and the IC50 ([2]; Homo sapiens, MKN-45, read-out: IC50 in cell proliferation assay) was 2.32 µM. It also gave an IC50 ([2]; Homo sapiens, MOLM-13, read-out: IC50 in cell proliferation assay) of 3.54 µM, an IC50 ([2]; Homo sapiens, MOLT-4, read-out: IC50 in cell proliferation assay) of 3.59 µM and an IC50 ([2]; Homo sapiens, MV4-11, read-out: IC50 in cell proliferation assay) of 2.49 µM. It also gave an IC50 ([2]; Homo sapiens, MeWo, read-out: IC50 in cell proliferation assay) of 2.81 µM, an IC50 ([2]; Homo sapiens, NCCIT, read-out: IC50 in cell proliferation assay) of 0.022 µM and an IC50 ([2]; Homo sapiens, NCI-H82, read-out: IC50 in cell proliferation assay) of 1.4 µM. It also gave an IC50 ([2]; Homo sapiens, NCI-H460, read-out: IC50 in cell proliferation assay) of 2.75 µM, an IC50 ([2]; Homo sapiens, NCI-H661, read-out: IC50 in cell proliferation assay) of 2.44 µM and an IC50 ([2]; Homo sapiens, NCI-H716, read-out: IC50 in cell proliferation assay) of 0.00234 µM. It also gave an IC50 ([2]; Homo sapiens, NCI-H1650, read-out: IC50 in cell proliferation assay) of 3.3 µM, an IC50 ([2]; Homo sapiens, NCI-H1975, read-out: IC50 in cell proliferation assay) of 2.97 µM and an IC50 ([2]; Homo sapiens, NCI-H2228, read-out: IC50 in cell proliferation assay) of 2.77 µM. The IC50 ([2]; Homo sapiens, OVCAR-3, read-out: IC50 in cell proliferation assay) was 3.13 µM, the IC50 ([2]; Homo sapiens, PFSK-1, read-out: IC50 in cell proliferation assay) was 3.86 µM and the IC50 ([2]; Homo sapiens, RL95-2, read-out: IC50 in cell proliferation assay) was 2.38 µM. It also gave an IC50 ([2]; Homo sapiens, RPMI-7951, read-out: IC50 in cell proliferation assay) of 2.98 µM, an IC50 ([2]; Homo sapiens, RS4-11, read-out: IC50 in cell proliferation assay) of 1.33 µM and an IC50 ([2]; Homo sapiens, Rec1, read-out: IC50 in cell proliferation assay) of 3.53 µM. The IC50 ([2]; Homo sapiens, SHP77, read-out: IC50 in cell proliferation assay) was over 31.6 µM, the IC50 ([2]; Homo sapiens, SK-BR-3, read-out: IC50 in cell proliferation assay) was 0.835 µM and the IC50 ([2]; Homo sapiens, SK-N-AS, read-out: IC50 in cell proliferation assay) was 2.83 µM. It also gave an IC50 ([2]; Homo sapiens, SK-N-FI, read-out: IC50 in cell proliferation assay) of 3.04 µM, an IC50 ([2]; Homo sapiens, SK-N-MC, read-out: IC50 in cell proliferation assay) of 2.6 µM and an IC50 ([2]; Homo sapiens, SK-N-SH, read-out: IC50 in cell proliferation assay) of 2.23 µM. For the same compound, the IC50 ([2]; Homo sapiens, SNU-5, read-out: IC50 in cell proliferation assay) was 5.25 µM, the IC50 ([2]; Homo sapiens, SNU-16, read-out: IC50 in cell proliferation assay) was 0.002 µM and the IC50 ([2]; Homo sapiens, SNU-C2B, read-out: IC50 in cell proliferation assay) was over 31.6 µM. The IC50 ([2]; Homo sapiens, SU-DHL-1, read-out: IC50 in cell proliferation assay) was 2.8 µM, the IC50 ([2]; Homo sapiens, SU-DHL-6, read-out: IC50 in cell proliferation assay) was 5.12 µM and the IC50 ([2]; Homo sapiens, SUP-T1, read-out: IC50 in cell proliferation assay) was 4.28 µM. For the same compound, the IC50 ([2]; Homo sapiens, SW48, read-out: IC50 in cell proliferation assay) was 8.07 µM, the IC50 ([2]; Homo sapiens, SW480, read-out: IC50 in cell proliferation assay) was 2.96 µM and the IC50 ([2]; Homo sapiens, SW626, read-out: IC50 in cell proliferation assay) was 3.56 µM. For the same compound, the IC50 ([2]; Homo sapiens, SW780, read-out: IC50 in cell proliferation assay) was 0.008 µM, the IC50 ([2]; Homo sapiens, SW837, read-out: IC50 in cell proliferation assay) was 6.23 µM and the IC50 ([2]; Homo sapiens, SW872, read-out: IC50 in cell proliferation assay) was 2.5 µM. It also gave an IC50 ([2]; Homo sapiens, SW900, read-out: IC50 in cell proliferation assay) of 1.92 µM, an IC50 ([2]; Homo sapiens, SW948, read-out: IC50 in cell proliferation assay) of 1.93 µM and an IC50 ([2]; Homo sapiens, SW982, read-out: IC50 in cell proliferation assay) of 1.28 µM. It also gave an IC50 ([2]; Homo sapiens, SW-620, read-out: IC50 in cell proliferation assay) of 3.49 µM, an IC50 ([2]; Homo sapiens, T98G, read-out: IC50 in cell proliferation assay) of 3.54 µM and an IC50 ([2]; Homo sapiens, TCC-SUP, read-out: IC50 in cell proliferation assay) of 0.606 µM. It also gave an IC50 ([2]; Homo sapiens, THP-1, read-out: IC50 in cell proliferation assay) of 4.23 µM, an IC50 ([2]; Homo sapiens, U2OS, read-out: IC50 in cell proliferation assay) of 2.95 µM and an IC50 ([2]; Homo sapiens, U-87 MG, read-out: IC50 in cell proliferation assay) of 3.12 µM. It also gave an IC50 ([2]; Homo sapiens, U-118-MG, read-out: IC50 in cell proliferation assay) of 4.09 µM, an IC50 ([2]; Homo sapiens, UMUC3, read-out: IC50 in cell proliferation assay) of 1.6 µM and an IC50 ([2]; Hs766T, read-out: IC50 in cell proliferation assay) of 5.66 µM. It also gave an IC50 ([2]; L-82, read-out: IC50 in cell proliferation assay) of 4.1 µM and an IC50 ([2]; Rh30, read-out: IC50 in cell proliferation assay) of 0.137 µM.
